In the assay the target is T1, USP25 (USP25-His6, Boston Biochem E-546) (Homo sapiens, UniProt Q9UHP3).
T1 construct: His6; purchased Boston Biochem E-546
T1 sequence (Q9UHP3 1-1055): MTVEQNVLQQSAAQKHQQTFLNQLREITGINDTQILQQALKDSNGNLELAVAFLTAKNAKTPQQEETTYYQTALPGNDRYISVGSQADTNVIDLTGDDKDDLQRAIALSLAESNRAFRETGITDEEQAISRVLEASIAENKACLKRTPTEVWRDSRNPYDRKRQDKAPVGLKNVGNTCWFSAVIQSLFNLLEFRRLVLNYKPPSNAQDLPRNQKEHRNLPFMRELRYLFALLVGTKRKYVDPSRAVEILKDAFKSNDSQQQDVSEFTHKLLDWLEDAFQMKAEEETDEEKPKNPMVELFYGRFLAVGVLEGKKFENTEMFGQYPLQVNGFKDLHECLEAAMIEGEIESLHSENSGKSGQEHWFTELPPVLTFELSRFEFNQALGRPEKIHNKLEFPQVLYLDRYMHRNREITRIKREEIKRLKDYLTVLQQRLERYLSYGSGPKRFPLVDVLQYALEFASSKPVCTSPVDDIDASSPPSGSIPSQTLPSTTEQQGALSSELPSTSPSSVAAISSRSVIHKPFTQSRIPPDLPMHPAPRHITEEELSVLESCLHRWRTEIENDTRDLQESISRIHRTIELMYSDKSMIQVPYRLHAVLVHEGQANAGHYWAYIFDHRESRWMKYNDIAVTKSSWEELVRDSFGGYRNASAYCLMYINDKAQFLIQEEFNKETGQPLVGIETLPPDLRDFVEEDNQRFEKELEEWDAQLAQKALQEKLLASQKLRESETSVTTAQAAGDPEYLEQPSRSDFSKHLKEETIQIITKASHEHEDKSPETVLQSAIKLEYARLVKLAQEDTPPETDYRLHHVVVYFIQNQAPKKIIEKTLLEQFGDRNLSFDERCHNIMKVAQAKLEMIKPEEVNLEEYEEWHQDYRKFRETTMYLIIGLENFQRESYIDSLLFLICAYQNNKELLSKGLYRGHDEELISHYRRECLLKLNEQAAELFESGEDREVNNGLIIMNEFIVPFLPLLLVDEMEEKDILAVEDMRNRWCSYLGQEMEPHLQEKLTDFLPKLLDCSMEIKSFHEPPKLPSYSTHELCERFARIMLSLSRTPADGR
Nature of the assay: Ubiquitin-Rhodamine 110 Assay for USP25 Activity, Example A-2. The format is biochemical. The following applies: Ubiquitin-Rhodamine 110 assay, Example A-2; read-out: USP25 A-2 IC50 range. In short, it runs like this:
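Cleavage of ubiquitin-rhodamine 110 (25 nM, well below Km) by His-tagged USP25 at 75 pM is measured fluorimetrically after 45 min at room temperature and acid quench. Inhibitors are preincubated with enzyme for 30 minutes. IC50 values come from four-parameter logistic curve fitting.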

The IC50 is the point on the concentration scale where inhibition reaches its midpoint. As for `Cc1cnc2c(N)c(C(=O)N[C@H]3CCc4cc(N5CCNC[C@@H](O)C5)ccc4C3)sc2n1` (single isomer, unassigned) [Example 7-4], the half-maximal inhibitory concentration (IC50) fell in the range of 200 to 2000 nM.
Then `Cc1cnc2c(N)c(C(=O)N[C@@H]3CCc4cc(N5CCNC[C@@H](O)C5)ccc4C3)sc2n1` (single isomer, unassigned) [Example 7-5], with 200 to 2000 nM; and `Cc1cnc2c(N)c(C(=O)N[C@H]3CCc4cc(N5CCNC[C@H](O)C5)ccc4C3)sc2n1` (single isomer, unassigned) [Example 7-6], with more than 2000 nM.
Then `Cc1cnc2c(N)c(C(=O)N[C@@H]3CCc4cc(N5CCNC[C@H](O)C5)ccc4C3)sc2n1` (single isomer, unassigned) [Example 7-7], with more than 2000 nM.
In the case of `Cc1ccc2c(N)c(C(=O)N[C@H]3CCc4cc(N5CCN[C@H](CO)C5)ccc4C3)sc2n1` (single isomer, unassigned) [Example 7-8] it was more than 2000 nM; in that of `Cc1ccc2c(N)c(C(=O)N[C@H]3CCc4cc(N5CCN[C@@H](CO)C5)ccc4C3)sc2n1` (single isomer, unassigned) [Example 7-9], more than 2000 nM; in that of `Cc1ccc2c(N)c(C(=O)N[C@@H]3CCc4cc(N5CCN[C@H](CO)C5)ccc4C3)sc2n1` (single isomer, unassigned) [Example 7-10], 200 to 2000 nM.
`Cc1ccc2c(N)c(C(=O)N[C@@H]3CCc4cc(N5CCN[C@@H](CO)C5)ccc4C3)sc2n1` (single isomer, unassigned) [Example 7-11]: the IC50 is 200 to 2000 nM.
Then `Cc1ccc2c(N)c(C(=O)N[C@H]3COc4cc(O[C@@H]5COC6(CNC6)C5)ccc4C3)sc2n1` (single isomer, unassigned) [Example 9-1], with 50 to 200 nM; and `Cc1ccc2c(N)c(C(=O)N[C@H]3COc4cc(O[C@H]5COC6(CNC6)C5)ccc4C3)sc2n1` (single isomer, unassigned) [Example 9-2], with 50 to 200 nM; and `CO[C@H]1CN(c2cc(F)c3c(c2)OC[C@H](NC(=O)c2sc4nc(C)ccc4c2N)C3)C[C@@H]1N` (single isomer, unassigned) [Example 10-3], with 200 to 2000 nM.
In the case of `Cc1nc2sc(C(=O)N[C@H]3CCc4cc(N5CC6CCC(C5)N6)ccc4C3)c(N)c2cc1F` (single isomer, unassigned) [Example 11-3] it was 200 to 2000 nM; in that of `Cc1nc2sc(C(=O)N[C@@H]3CCc4cc(N5CC6CCC(C5)N6)ccc4C3)c(N)c2cc1F` (single isomer, unassigned) [Example 11-4], 50 to 200 nM; in that of `COc1ccc2c(N)c(C(=O)N[C@H]3CCc4cc(N5CC6CCC(C5)N6)ccc4C3)sc2n1` (single isomer, unassigned) [Example 11-5], 200 to 2000 nM.
Then `COc1ccc2c(N)c(C(=O)N[C@@H]3CCc4cc(N5CC6CCC(C5)N6)ccc4C3)sc2n1` (single isomer, unassigned) [Example 11-6], with more than 2000 nM.
Take `Cc1cnc2c(N)c(C(=O)N[C@H]3CCc4cc(N5CC6CCC(C5)N6)ccc4C3)sc2n1` (single isomer, unassigned) [Example 11-7]: the half-inhibitory concentration (IC50) lay within 200 to 2000 nM.
In the case of `Cc1cnc2c(N)c(C(=O)N[C@@H]3CCc4cc(N5CC6CCC(C5)N6)ccc4C3)sc2n1` (single isomer, unassigned) [Example 11-8] it was more than 2000 nM.
In the case of `CCn1ccc2cc(C(=O)N[C@H]3CCc4cc(N5CC6CCC(C5)N6)ccc4C3)cnc21` (single isomer, unassigned) [Example 11-9] it was more than 2000 nM; in that of `CCn1ccc2cc(C(=O)N[C@@H]3CCc4cc(N5CC6CCC(C5)N6)ccc4C3)cnc21` (single isomer, unassigned) [Example 11-10], 200 to 2000 nM; in that of `Cc1ccc2c(N)c(C(=O)N[C@H]3CCc4cc(N5CCNCC5)cc(F)c4C3)sc2n1` (single isomer, unassigned) [Example 11-11], more than 2000 nM.
Then `Cc1ccc2c(N)c(C(=O)N[C@@H]3CCc4cc(N5CCNCC5)cc(F)c4C3)sc2n1` (single isomer, unassigned) [Example 11-12], with 200 to 2000 nM.

The values above are taken from patent US11524966B1 (Valo Early Discovery, Inc., priority 2017, dated 2022).
